Measurements reported in patent publication US6403594B1, “Benzopyran derivatives” (Recordati, S.A. Chemical and Pharmaceutical Company, priority 1999, dated 2002).
pKi: −log10 of the molar value. Where a name gives a salt, the structure may show the parent alone.

What was measured:
[1] = molecular target: T1, α1a-adrenoceptor (recombinant) (Homo sapiens, UniProt P35348); experiment: Radioligand binding, cloned α1a-adrenoceptor ([3H]prazosin); settings: read-out: Affinity for recombinant α1a-adrenoceptor, cloned receptors (Ki)
T1 construct: expressed in transfected cells
T1 sequence (P35348 1-466): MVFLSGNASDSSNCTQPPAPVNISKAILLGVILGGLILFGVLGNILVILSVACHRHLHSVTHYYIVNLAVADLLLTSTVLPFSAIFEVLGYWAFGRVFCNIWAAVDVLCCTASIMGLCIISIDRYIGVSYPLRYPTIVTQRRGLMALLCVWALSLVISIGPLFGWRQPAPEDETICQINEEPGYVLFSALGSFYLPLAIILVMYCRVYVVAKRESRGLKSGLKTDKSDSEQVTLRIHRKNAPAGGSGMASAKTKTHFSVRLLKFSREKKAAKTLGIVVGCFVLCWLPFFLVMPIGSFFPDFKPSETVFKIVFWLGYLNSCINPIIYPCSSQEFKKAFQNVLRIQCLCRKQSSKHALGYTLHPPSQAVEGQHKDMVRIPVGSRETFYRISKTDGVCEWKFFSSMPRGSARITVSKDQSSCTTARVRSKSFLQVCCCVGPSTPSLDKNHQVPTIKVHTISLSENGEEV
Method: (§1) Determination of affinity for cloned subtypes of α1-adrenoceptor subtypes was performed in membranes from cells transfected by electroporation with DNA expressing the genes encoding each α1-adrenoceptor subtype.
(§2) Non-specific binding was determined in the presence of 10 μM phentolamine.
(§3) Incubation was stopped by addition of ice-cold Tris buffer and rapid filtration through 0.2% polyethyleneimine-pretreated Schleicher & Schuell GF52 filters.
(§4) Data were expressed as mean Ki.

[2] = molecular target: T2, α1b-adrenoceptor (recombinant) (Homo sapiens, UniProt P35368); experiment: Radioligand binding, cloned α1b-adrenoceptor ([3H]prazosin); settings: read-out: Affinity for recombinant α1b-adrenoceptor, cloned receptors (Ki)
T2 construct: expressed in transfected cells
T2 sequence (P35368 1-520): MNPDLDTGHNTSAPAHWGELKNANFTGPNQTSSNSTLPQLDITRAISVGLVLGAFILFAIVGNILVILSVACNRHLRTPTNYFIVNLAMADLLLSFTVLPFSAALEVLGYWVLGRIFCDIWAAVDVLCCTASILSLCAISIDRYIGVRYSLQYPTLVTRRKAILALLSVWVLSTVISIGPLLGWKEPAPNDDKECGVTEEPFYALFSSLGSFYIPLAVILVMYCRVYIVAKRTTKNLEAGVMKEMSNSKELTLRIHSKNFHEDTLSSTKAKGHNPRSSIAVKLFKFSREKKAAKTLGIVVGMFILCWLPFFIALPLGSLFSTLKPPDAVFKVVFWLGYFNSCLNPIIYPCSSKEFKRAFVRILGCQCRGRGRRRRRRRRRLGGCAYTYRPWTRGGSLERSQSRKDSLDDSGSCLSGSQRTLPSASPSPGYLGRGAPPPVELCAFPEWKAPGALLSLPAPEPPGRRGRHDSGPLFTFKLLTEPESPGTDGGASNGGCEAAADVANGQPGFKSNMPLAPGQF
Method: as §1, §2, §3, §4

[3] = molecular target: T3, α1d-adrenoceptor (recombinant) (Homo sapiens, UniProt P25100); experiment: Radioligand binding, cloned α1d-adrenoceptor ([3H]prazosin); settings: read-out: Affinity for recombinant α1d-adrenoceptor, cloned receptors (Ki)
T3 sequence (P25100 1-572): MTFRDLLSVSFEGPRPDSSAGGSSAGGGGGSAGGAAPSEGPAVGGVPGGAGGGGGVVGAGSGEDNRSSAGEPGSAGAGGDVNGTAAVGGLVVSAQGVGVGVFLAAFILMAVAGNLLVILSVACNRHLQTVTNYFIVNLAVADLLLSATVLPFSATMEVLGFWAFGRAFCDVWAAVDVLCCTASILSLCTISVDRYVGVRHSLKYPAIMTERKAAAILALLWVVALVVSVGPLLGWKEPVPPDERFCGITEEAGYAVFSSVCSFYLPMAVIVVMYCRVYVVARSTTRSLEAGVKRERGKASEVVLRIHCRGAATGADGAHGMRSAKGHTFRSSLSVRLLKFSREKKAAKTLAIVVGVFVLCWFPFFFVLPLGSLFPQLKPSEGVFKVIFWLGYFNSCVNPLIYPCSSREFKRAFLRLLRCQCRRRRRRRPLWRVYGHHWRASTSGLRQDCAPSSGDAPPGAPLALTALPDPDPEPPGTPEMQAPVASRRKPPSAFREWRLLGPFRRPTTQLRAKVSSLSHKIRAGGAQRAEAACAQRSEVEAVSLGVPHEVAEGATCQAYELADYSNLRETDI
Method: as §1, §2, §3, §4

[4] = molecular target: T4, 5HT1A-serotoninergic receptor (Homo sapiens, UniProt P08908); experiment: Radioligand binding, cloned 5-HT1A-serotoninergic receptor in HeLa membranes ([3H]8-OH-DPAT); design: expressed in transfected cells; host or cells: HeLa; settings: cloned human 5-HT1A receptor in HeLa membranes, mean Ki, read-out: Affinity for 5-HT1A receptor, cloned receptors (Ki)
T4 sequence (P08908 1-422): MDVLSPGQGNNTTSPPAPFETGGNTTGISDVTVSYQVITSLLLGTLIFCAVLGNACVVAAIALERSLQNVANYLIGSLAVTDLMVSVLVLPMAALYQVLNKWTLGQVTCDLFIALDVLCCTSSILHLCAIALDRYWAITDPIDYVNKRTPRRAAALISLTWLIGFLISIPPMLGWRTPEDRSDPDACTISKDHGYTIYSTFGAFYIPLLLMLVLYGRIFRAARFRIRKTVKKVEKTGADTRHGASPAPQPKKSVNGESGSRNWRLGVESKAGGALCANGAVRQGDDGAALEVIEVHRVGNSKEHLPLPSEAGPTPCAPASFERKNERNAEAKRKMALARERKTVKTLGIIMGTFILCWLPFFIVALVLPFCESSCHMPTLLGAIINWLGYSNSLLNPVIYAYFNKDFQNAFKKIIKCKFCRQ
Method: HeLa cells were grown as monolayers in Dulbecco's Modified Eagle medium (DMEM) supplemented with 10% foetal calf serum and gentamicin (100 μg/mL), 5% CO2, at 37° C. The cells were detached from the growth flask at 95% confluence by a cell scraper and were lysed in ice-cold Tris-5-mM and EDTA-5-mM buffer (pH 7.4). The homogenates were centrifuged at 40000×g×20 minutes and the membranes were resuspended in a small volume of ice-cold buffer containing Tris 5 mM and EDTA 5 mM (pH 7.4), and immediately frozen and stored at −70° C. until use.
Non-specific binding was determined in the presence of 10 μM 5-HT. The incubation was stopped by addition of ice-cold Tris buffer and rapid filtration through 0.2% polyethyleneimine-pretreated Schleicher & Schuell filters.
as §4

α1L adrenoceptor = molecular target: T5, α1L adrenoceptor (Oryctolagus cuniculus, UniProt O02824); experiment: Functional antagonism of noradrenaline-induced contractions of rabbit aorta pretreated with chloroethylclonidine; type: biochemical; settings: NA-induced contractions of rabbit aorta pretreated with chloroethylclonidine
T5 sequence (O02824 1-466): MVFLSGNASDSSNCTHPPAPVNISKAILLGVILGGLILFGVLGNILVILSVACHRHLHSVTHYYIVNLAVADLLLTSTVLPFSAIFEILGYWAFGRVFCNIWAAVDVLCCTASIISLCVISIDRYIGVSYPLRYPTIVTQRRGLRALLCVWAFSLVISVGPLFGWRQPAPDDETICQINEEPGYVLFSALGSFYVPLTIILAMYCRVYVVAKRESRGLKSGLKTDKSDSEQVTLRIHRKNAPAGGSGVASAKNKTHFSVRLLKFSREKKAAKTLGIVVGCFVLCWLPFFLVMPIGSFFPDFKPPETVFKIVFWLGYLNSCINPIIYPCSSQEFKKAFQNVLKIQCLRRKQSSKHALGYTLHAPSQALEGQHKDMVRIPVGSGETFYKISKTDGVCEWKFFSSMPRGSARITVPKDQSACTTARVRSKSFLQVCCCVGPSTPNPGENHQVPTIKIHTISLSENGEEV
Method: Adult male New Zealand rabbits were sacrificed by cervical dislocation. The aorta was removed, placed in Krebs-Henseleit buffer and dissected free of adhering tissue. […] Desmethylimipramine (0.1 μm) and corticosterone (1 μM) to block neuronal and extraneuronal uptake of NA, (±)-propranol (1 μM) to block β adrenoceptors and yohimbine (0.1 μM) to block α2 adrenoceptors, were added to the buffer.
The preparations were allowed to equilibrate for 60 minutes and then primed every thirty minutes with 10 μM NA for three times. The aortic rings were then incubated with the alkylating agent chloroethylclonidine (5×10^−5 M) for 30 minutes and then washed extensively three times (in 0.5 hours) before constructing the NA-concentration/response curve. After washout of NA and re-equilibration of the tissue (45 minutes), the drug to be tested was added and, after 30 minutes, a second NA-cumulative-concentration/response curve constructed.
Each antagonist concentration was tested using 2-3 aortic rings from different rabbits.
Dose ratios (i.e., the ratio between the concentrations of NA required to produce half-maximal response in the presence and in the absence of the test antagonist) were calculated for each concentration of the compounds. The logarithm of these dose ratio-1 was plotted against the logarithm of the compound concentrations (Schild plot) to evaluate the affinity constant Kb.
When only one or two concentrations of the test compounds were utilised, the apparent Kb value was calculated using the formula: Kb=[B]/(DOSE RATIO-1), where B is the antagonist concentration.

| pKi [1] | pKi [2] | pKi [3] | pKi [4] | Structure (SMILES) | Functional affinity for the α1L adrenoceptor subtype, pKb (α1L adrenoceptor) |
| --- | --- | --- | --- | --- | --- |
| 8.94 | 8.69 | 8.00 | 8.38 | Cc1c(C(N)=O)oc2c(C(=O)NCCCN3CCN(c4cc(Cl)ccc4O)CC3)cccc2c1=O [Example 12, 2-Carbamoyl-8-{3-[4-(5-chloro-2-hydroxyphenyl)-1-piperazinyl]-propylcarbamoyl}-3-methyl-4-oxo-4H-1-benzopyran] |  |
| 9.49 | 8.63 | 8.57 | 7.91 | COc1ccc(Cl)cc1N1CCN(CCCNC(=O)c2cccc3c(=O)c(C)c(C(C)=O)oc23)CC1 [Example 2, 2-Acetyl-8-{3-[4-(5-chloro-2-methoxyphenyl)-1-piperazinyl]propylcarbamoyl}-3-methyl-4-oxo-4H-1-benzopyran] |  |
| 9.00 |  | 8.19 | 7.89 | Cc1c(C(N)=O)oc2c(C(=O)NCCCN3CCN(c4ccc(F)cc4OCC(F)(F)F)CC3)cccc2c1=O [Example 7, 2-Carbamoyl-8-<3-{4-[4-fluoro-2-(2,2,2-trifluoroethoxy)phenyl]-1-piperazinyl}-propylcarbamoyl>-3-methyl-4-oxo-4H-1-benzopyran] |  |
| 9.24 | 8.62 | 8.69 | 7.64 | CNC(=O)c1oc2c(C(=O)NCCCN3CCN(c4cc(Cl)ccc4OC)CC3)cccc2c(=O)c1C [Example 5, 8-{3-[4-(5-Chloro-2-methoxyphenyl)-1-piperazinyl]propylcarbamoyl}-3-methyl-2-methylcarbamoyl-4-oxo-4H-1-benzopyran] |  |
| 9.76 | 7.84 | 8.19 | 8.26 | Cc1c(C(N)=O)oc2c(C(=O)NCCCN3CCN(c4ccccc4OCC(F)(F)F)CC3)cccc2c1=O [Example 10, 2-Carbamoyl-8-<3-{4-[2-(2,2,2-trifluoroethoxy)phenyl]-1-piperazinyl}-propylcarbamoyl>-3-methyl-4-oxo-4H-1-benzopyran] |  |
| 8.79 | 9.00 | 7.96 | 7.50 | Cc1c(C(N)=O)oc2c(C(=O)NCCCN3CCN(c4cc(Cl)ccc4OS(=O)(=O)C(F)(F)F)CC3)cccc2c1=O [Example 13, 2-Carbamoyl-8-{3-[4-(5-chloro-2-trifluoromethanesulphonyloxyphenyl)-1-piperazinyl]propylcarbamoyl}-3-methyl-4-oxo-4H-1-benzopyran] |  |
| 8.60 | 7.50 | 7.46 | 6.59 | COc1ccc(OCC(F)(F)F)cc1N1CCN(CCCNC(=O)c2cccc3c(=O)c(C)c(-c4ccccc4)oc23)CC1 [Example 21, 8-<3-{4-[2-Methoxy-5-(2,2,2-trifluoroethoxy)phenyl]-1-piperazinyl}-propylcarbamoyl>-3-methyl-4-oxo-2-phenyl-4H-1-benzopyran] |  |
| 7.54 | 7.02 | 6.33 |  | COc1ccc(OCC(F)(F)F)cc1N1CCN(CCCNC(=O)c2cccc3c(=O)c(C)c(C(N)=O)oc23)CC1 [Example 9, 2-Carbamoyl-8-<3-{4-[2-methoxy-5-(2,2,2-trifluoroethoxy)phenyl]-1-piperazinyl}-propylcarbamoyl>-3-methyl-4-oxo-4H-1-benzopyran] |  |
| 10.15 | 8.45 | 9.49 | 8.35 | Cc1c(-c2ccccc2)oc2c(C(=O)NCCCN3CCN(c4cc(F)ccc4OCC(F)(F)F)CC3)cccc2c1=O [Example 20, 8-<3-{4-[5-Fluoro-2-(2,2,2-trifluoroethoxy)phenyl]-1-piperazinyl}-propylcarbamoyl>-3-methyl-4-oxo-2-phenyl-4H-1-benzopyran] |  |

| Structure (SMILES) | pKi [1] | pKi [2] | pKi [3] | pKi [4] | Functional affinity for the α1L adrenoceptor subtype, pKb (α1L adrenoceptor) |
| --- | --- | --- | --- | --- | --- |
| Cc1c(-c2ccccc2)oc2c(C(=O)NCCCN3CCN(c4cc(Cl)ccc4OS(=O)(=O)C(F)(F)F)CC3)cccc2c1=O [Example 24, 8-{3-[4-(5-Chloro-2-trifluoromethanesulphonyloxyphenyl)-1-piperazinyl]-propylcarbamoyl}-3-methyl-4-oxo-2-phenyl-4H-1-benzopyran hydrochloride] | 8.38 | 8.11 | 7.47 | 6.85 |  |
| COc1cc2nc(N3CCN(C(=O)C4CCCO4)CC3)nc(N)c2cc1OC (stereo not shown) [terazosin, reference compound] |  |  | 8.62 |  | 7.25 |
